# From US20260041679A1, “METHOD OF TREATING HYPERTENSION WITH THE ALDOSTERONE SYNTHASE INHIBITOR BAXDROSTAT” (CINCOR PHARMA, INC., priority 2022, published 2026)
# Columns and labels:
# [1] = Single ascending dose study, pharmacokinetics (Example 1); format: in vivo
# Description: (§1) Eighty-eight healthy male volunteers completed the first-in-human study of baxdrostat. In part 1 of the trial, subjects received a single oral dose of baxdrostat ranging from 1 to 360 mg in order to evaluate safety, tolerability, PK, and pharmacodynamics (PD). Part 2 evaluated the PK of a single 3 mg intravenous dose of baxdrostat.
# [2] = Single ascending dose study, safety and tolerability (Example 1); format: in vivo; details: single dose 1 to 360 mg
# Description: as §1
# [3] = Multiple ascending dose study, safety (Example 2); format: in vivo, human; details: 0.5 to 5.0 mg once daily, 10 days
# Description: This randomized, double-blind, placebo-controlled phase 1 study evaluated the safety, pharmacokinetics, and pharmacodynamics of multiple ascending doses of baxdrostat in healthy volunteers. Fifty-six subjects were randomized to receive oral baxdrostat (0.5, 1.5, 2.5, or 5.0 mg) or placebo once daily for ten days and were placed on either a low salt or normal salt diet for the duration of the study. In particular, subjects were randomized into 5 cohorts to receive baxdrostat or placebo once daily for 10 days. Cohorts 1 and 2 were placed on a low salt diet to stimulate aldosterone production and were administered 2.5 or 5.0 mg oral baxdrostat, respectively. Cohorts 1 and 2 also underwent an adrenocorticotropic hormone (ACTH) challenge to increase aldosterone and cortisol levels to evaluate the specificity of baxdrostat for targeting aldosterone synthase. Cohorts 3, 4, and 5 were placed on a normal salt diet and were administered 1.5, 2.5, or 0.5 mg oral baxdrostat, respectively. Blood samples were collected prior to and after dosing on days 1 and 10 for measurement of plasma baxdrostat concentrations to characterize single-dose and steady-state pharmacokinetics. Pharmacodynamic measurements included plasma aldosterone, cortisol, and electrolytes. Safety assessments included physical examination, electrocardiograms, orthostatic vital signs, and clinical laboratory evaluations.
# aldosterone synthase = molecular target: T1, aldosterone synthase (Homo sapiens, UniProt P19099); assay: Study 121: pharmacodynamics, serum and 24-hour urine aldosterone, plasma renin activity, serum cortisol; format: in vivo
# T1 construct: Pharmacodynamic measurements included plasma aldosterone, cortisol, and electrolytes; endogenous in cells; host or cells: human subjects in vivo (healthy volunteers; resistant hypertension patients)
# T1 sequence (P19099 25-503): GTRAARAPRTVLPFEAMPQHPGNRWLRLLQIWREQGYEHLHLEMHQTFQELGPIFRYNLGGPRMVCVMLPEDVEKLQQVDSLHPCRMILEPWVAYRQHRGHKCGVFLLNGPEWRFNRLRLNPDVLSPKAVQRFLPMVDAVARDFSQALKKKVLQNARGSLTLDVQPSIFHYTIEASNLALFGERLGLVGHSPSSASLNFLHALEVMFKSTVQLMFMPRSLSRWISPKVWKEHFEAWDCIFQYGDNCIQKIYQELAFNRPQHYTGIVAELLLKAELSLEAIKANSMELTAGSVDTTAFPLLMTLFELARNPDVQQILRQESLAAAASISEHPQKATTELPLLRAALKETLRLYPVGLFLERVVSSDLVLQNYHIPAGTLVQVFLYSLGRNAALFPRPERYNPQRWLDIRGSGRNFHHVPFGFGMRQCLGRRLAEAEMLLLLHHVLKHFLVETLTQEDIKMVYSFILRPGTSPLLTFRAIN
# Text: Blood and urine samples were collected for determination of the pharmacodynamic parameters related to baxdrostat mechanism of aldosterone suppression. Serum concentrations of aldosterone, aldosterone excreted in 24-hour urine collections, plasma renin activity (PRA) and serum cortisol are summarized by dose and by study day as shown in FIGS. 3A-3D. […] These hormonal data provide strong biochemical evidence to support the mechanism by which baxdrostat's inhibition of aldosterone synthesis produces a significant impact on blood pressure levels without lowering serum cortisol levels.
# [4] = Study 121: adverse events, safety population
# Description: In this study, adverse events of special interest (AESIs) were events of hypotension, low sodium levels or elevated potassium levels that required clinical intervention.
compound,measurement,setting,value
"CCC(=O)N[C@@H]1CCCc2c(-c3ccc4c(c3)CCC(=O)N4C)cncc21 [baxdrostat, (R)—N-(4-(1-methyl-2-oxo-1,2,3,4-tetrahydroquinolin-6-yl)-5,6,7,8-tetrahydroisoquinolin-8-yl) propionamide]",half-life,"[1]; human, plasma, oral, single dose, healthy male volunteers",29 h
same,plasma levels of baxdrostat vs dose,[1]; single oral dose 1 to 360 mg,increased in a dose-proportional manner
same,"deaths, serious adverse events, dose-limiting adverse events",[2],"no deaths, serious adverse events, or dose-limiting adverse events"
same,side effects,[2],"mild and included headache, nasopharyngitis, and diarrhea"
same,deaths or serious adverse events,[3],no deaths or serious adverse events
same,severity of treatment-emergent adverse events,[3],mild in severity
same,urinary aldosterone excretion,aldosterone synthase; 24-hour urine,significantly reduced urinary aldosterone excretion
same,"suppression of aldosterone and augmentation of renin activity, male vs female patients",aldosterone synthase; in vivo,comparable between male and female patients
same,plasma renin activity (PRA),aldosterone synthase; rHTN patients,increased PRA several-fold
same,total serum cortisol,aldosterone synthase; rHTN patients,no reduction in total serum cortisol
same,"TESAE, Number of Subjects (Number of Events)",[4]; 0.5 mg,0 (0) subjects (events)
same,TESAE: General disorders and administration site conditions,[4]; 0.5 mg,0 subjects (events)
same,TESAE: Infections and infestations,[4]; 0.5 mg,0 subjects (events)
same,TESAE: Metabolism and nutrition disorders,[4]; 0.5 mg,0 subjects (events)
same,TESAE: Musculoskeletal and connective tissue disorders,[4]; 0.5 mg,0 subjects (events)
same,TESAE: Nervous system disorders,[4]; 0.5 mg,0 subjects (events)
same,TESAE: Renal and urinary disorders,[4]; 0.5 mg,0 subjects (events)
same,"TESAE: Respiratory, thoracic and mediastinal disorders",[4]; 0.5 mg,0 subjects (events)
same,"adverse events of special interest (AESIs), patients per arm",[4]; 0.5 mg,1
same,percentage of patients who experienced TEAEs,[4]; 0.5 mg,34.8%
same,"TESAE, Number of Subjects (Number of Events)",[4]; 1 mg,2 (3) subjects (events)
same,TESAE: Infections and infestations,[4]; 1 mg,1 (1) subjects (events)
same,TESAE: Intervertebral disc degeneration,[4]; 1 mg,1 (1) subjects (events)
same,TESAE: Musculoskeletal and connective tissue disorders,[4]; 1 mg,1 (1) subjects (events)
same,TESAE: Nephrolithiasis,[4]; 1 mg,1 (1) subjects (events)
same,TESAE: Pyelonephritis,[4]; 1 mg,1 (1) subjects (events)
same,TESAE: Renal and urinary disorders,[4]; 1 mg,1 (1) subjects (events)
same,percentage of patients who experienced TEAEs,[4]; 1 mg,52.2%
same,"adverse events of special interest (AESIs), patients per arm",[4]; 1 mg arm,5
same,"TESAE, Number of Subjects (Number of Events)",[4]; 2 mg,6 (12) subjects (events)
same,TESAE: Acute kidney injury,[4]; 2 mg,1 (1) subjects (events)
same,TESAE: Acute respiratory failure,[4]; 2 mg,1 (1) subjects (events)
same,TESAE: Arthralgia,[4]; 2 mg,1 (1) subjects (events)
same,TESAE: Cellulitis,[4]; 2 mg,1 (1) subjects (events)
same,TESAE: Dehydration,[4]; 2 mg,1 (1) subjects (events)
same,TESAE: Dizziness,[4]; 2 mg,1 (1) subjects (events)
same,TESAE: Hyperglycaemia,[4]; 2 mg,1 (1) subjects (events)
same,TESAE: Hyperkalemia,[4]; 2 mg,1 (1) subjects (events)
same,TESAE: Hyponatraemia,[4]; 2 mg,1 (1) subjects (events)
same,TESAE: Infections and infestations,[4]; 2 mg,2 (2) subjects (events)
same,TESAE: Metabolism and nutrition disorders,[4]; 2 mg,1 (4) subjects (events)
same,TESAE: Musculoskeletal and connective tissue disorders,[4]; 2 mg,1 (1) subjects (events)
same,TESAE: Nervous system disorders,[4]; 2 mg,2 (2) subjects (events)
same,TESAE: Renal and urinary disorders,[4]; 2 mg,1 (1) subjects (events)
same,TESAE: Respiratory failure,[4]; 2 mg,1 (1) subjects (events)
same,"TESAE: Respiratory, thoracic and mediastinal disorders",[4]; 2 mg,2 (2) subjects (events)
same,TESAE: Syncope,[4]; 2 mg,1 (1) subjects (events)
same,TESAE: Urinary tract infection,[4]; 2 mg,1 (1) subjects (events)
same,percentage of patients who experienced TEAEs,[4]; 2 mg,47.8%
same,"adverse events of special interest (AESIs), patients per arm",[4]; 2 mg arm,2
same,adrenal insufficiency,[4]; Study 121,no reported cases of adrenal insufficiency
same,deaths and relatedness of SAEs,[4]; Study 121,no deaths in the study and all SAEs were assessed by the investigators to be unrelated to baxdrostat
same,tolerability,[4]; once daily for 12 weeks,well tolerated
